Reference: US9447100B2, “Substituted pyrazolo[1,5-A] pyrimidines as calcium receptor modulating agents” (Takeda Pharmaceutical Company Limited, priority 2002, dated 2016)
Counter-ions that a name gives are not always drawn.

Which melting point does the source give for `CCC(CC)(NC(=O)c1cnn2c1NC(c1ccccc1)CC2(C)C)c1cc(-c2ccc(F)cc2)n(C)n1` (stereo not shown) [Example 726, N-(1-ethyl-1-(5-(4-fluorophenyl)-1-methyl-1H-pyrazol-3-yl)propyl)-7,7-dimethyl-5-phenyl-4,5,6,7-tetrahydropyrazolo[1,5-a]pyrimidine-3-carboxamide] here?
Its melting point is 218 to 219 °C.

For `CCC(CC)(NC(=O)c1cnn2c1NC(c1ccccc1)CC2(C)C)c1ccc(COC(C)=O)cc1` (stereo not shown) [Example 737, 4-(1-(((7,7-dimethyl-5-phenyl-4,5,6,7-tetrahydropyrazolo[1,5-a]pyrimidin-3-yl)carbonyl)amino)-1-ethylpropyl)benzyl acetate], which melting point is on record?
Its melting point is 185 to 186 °C.

Which melting point does the source give for `CCCCOC(=O)c1ccc(C(CC)(CC)NC(=O)c2cnn3c2NC(c2ccccc2)CC3(C)C)cc1` (stereo not shown) [Example 757, butyl 4-(1-(((7,7-dimethyl-5-phenyl-4,5,6,7-tetrahydropyrazolo[1,5-a]pyrimidin-3-yl)carbonyl)amino)-1-ethylpropyl)benzoate] here?
The melting point was 139 to 140 °C.

Which melting point does the source give for `COc1ccccc1C1CC(C(F)(F)F)n2ncc(C(=O)NC34CC5CC(CC(C5)C3)C4)c2N1` (stereo not shown) [Example 279, N-(1-adamantyl)-5-(2-methoxyphenyl)-7-(trifluoromethyl)-4,5,6,7-tetrahydropyrazolo[1,5-a]pyrimidine-3-carboxamide] here?
Its melting point is 238 to 239 °C.

With `CCC1(CC)C[C@@H](O)CN1C(=O)c1c(C)nn2c1N[C@@H](c1ccccc1)CC2(C)C` [Example 1097, (3R)-5,5-diethyl-1-(((5R)-2,7,7-trimethyl-5-phenyl-4,5,6,7-tetrahydropyrazolo[1,5-a]pyrimidin-3-yl)carbonyl)-3-pyrrolidinol] as the compound, how does the melting point read?
Its melting point is 162 to 164 °C.

With `O=C(NCC(=O)c1cccc2ccccc12)c1cnn2c1N[C@H](c1ccccc1)C[C@@H]2C(F)(F)F` (stereo in doubt) [Example 286, N-(2-(1-naphthyl)-2-oxoethyl)-5-phenyl-7-(trifluoromethyl)-4,5,6,7-tetrahydropyrazolo[1,5-a]pyrimidine-3-carboxamide] as the compound, how does the melting point read?
Its melting point is 141 to 142 °C.

For `CCC(CC)(NC(=O)c1cnn2c1NC(c1ccccc1)CC2(C)C)c1cccc(F)c1` (stereo not shown) [Example 615, N-(1-ethyl-1-(3-fluorophenyl)propyl)-7,7-dimethyl-5-phenyl-4,5,6,7-tetrahydropyrazolo[1,5-a]pyrimidine-3-carboxamide], which melting point is on record?
The melting point was 180 to 181 °C.

For `CCC(CC)(NC(=O)c1c(C)nn2c1NC(c1ccccc1F)CC2(C)C)c1ccc(C)cc1` (stereo not shown) [Example 962, N-[1-ethyl-1-(4-methylphenyl)propyl]-5-(2-fluorophenyl)-2,7,7-trimethyl-4,5,6,7-tetrahydropyrazolo[1,5-a]pyrimidine-3-carboxamide], which melting point is on record?
Its melting point is 139 to 140 °C.

With `CC1(C)CC(c2ccccc2)Nc2c(C(=O)NC34CC5CC(CC(C5)C3)C4)cnn21` (stereo not shown) [Example 374, N-(1-adamantyl)-7,7-dimethyl-5-phenyl-4,5,6,7-tetrahydropyrazolo[1,5-a]pyrimidine-3-carboxamide] as the compound, how does the melting point read?
Its melting point is 235 to 236 °C.

Which melting point does the source give for `CCC(CC)(NC(=O)c1c(C)nn2c1NC(c1ccccc1)CC2(C)C)c1ccc(CO)cc1` (stereo not shown) [Example 955, N-(1-ethyl-1-(4-(hydroxy-methyl)phenyl)propyl)-2,7,7-trimethyl-5-phenyl-4,5,6,7-tetrahydropyrazolo[1,5-a]pyrimidine-3-carboxamide] here?
The melting point was 146 to 147 °C.

With `CCC1(CC)C[C@H](OC)CN1C(=O)c1cnn2c1N[C@@H](c1ccccc1)CC2(C)C` [Example 1113, (5R)-3-(((4S)-2,2-diethyl-4-methoxy-1-pyrrolidinyl)carbonyl)-7,7-dimethyl-5-phenyl-4,5,6,7-tetrahydropyrazolo[1,5-a]pyrimidine] as the compound, how does the melting point read?
Its melting point is 122 to 124 °C.

For `COc1ccc(C2CC(C)(C)n3ncc(C(=O)O)c3N2)cc1` (stereo not shown) [Example 942, 5-(4-methoxyphenyl)-7,7-dimethyl-4,5,6,7-tetrahydropyrazolo[1,5-a]pyrimidine-3-carboxylic acid], which melting point is on record?
Its melting point is 196 to 197 °C.

For `O=C(NC12CC3CC(CC(C3)C1)C2)c1cnn2c1NC(c1ccccc1)CC21CCCC1` (stereo not shown) [Example 183, N-(1-adamantyl)-5′-phenyl-5′,6′-dihydro-4′H-spiro[cyclopentane-1,7′-pyrazolo[1,5-a]pyrimidine]-3′-carboxamide], which melting point is on record?
Its melting point is 259 to 261 °C.

For `CC(NC(=O)c1cnn2c1N[C@H](c1ccccc1)C[C@@H]2C(F)(F)F)C(=O)c1ccccc1` (stereo in doubt) [Example 291, N-(1-methyl-2-oxo-2-phenylethyl)-5-phenyl-7-(trifluoromethyl)-4,5,6,7-tetrahydropyrazolo[1,5-a]pyrimidine-3-carboxamide], which melting point is on record?
Its melting point is 178 to 179 °C.

For `CCC(CC)(NC(=O)c1c(C)nn2c1NC(c1ccccc1)CC2(C)C)c1ccc(Cl)cc1` (stereo not shown) [Example 696, N-(1-(4-chlorophenyl)-1-ethylpropyl)-2,7,7-trimethyl-5-phenyl-4,5,6,7-tetrahydropyrazolo[1,5-a]pyrimidine-3-carboxamide], which melting point is on record?
The melting point was 146 to 148 °C.

Which melting point does the source give for `CC1(C)CC(c2ccccc2)Nc2c(C(=O)O)c(OCCO)nn21` (stereo not shown) [Example 953, 2-(2-hydroxyethoxy)-7,7-dimethyl-5-phenyl-4,5,6,7-tetrahydropyrazolo[1,5-a]pyrimidine-3-carboxylic acid] here?
Its melting point is 137 to 139 °C.

For `CCC(C#N)NC(=O)c1cnn2c1N[C@H](c1ccccc1)C[C@@H]2C(F)(F)F` (stereo in doubt) [Example 284, N-(1-cyanopropyl)-5-phenyl-7-(trifluoromethyl)-4,5,6,7-tetrahydropyrazolo[1,5-a]pyrimidine-3-carboxamide], which melting point is on record?
The melting point was 201 to 202 °C.

Which melting point does the source give for `C=CCc1ccc(C(CC)(CC)NC(=O)c2cnn3c2NC(c2ccccc2)CC3(C)C)cc1` (stereo not shown) [Example 705, N-(1-(4-allylphenyl)-1-ethylpropyl)-7,7-dimethyl-5-phenyl-4,5,6,7-tetrahydropyrazolo[1,5-a]pyrimidine-3-carboxamide] here?
Its melting point is 147 to 148 °C.

With `CCC(CC)(NC(=O)c1cnn2c1NC(c1ccccc1)CC2(C)C)c1ccc(C(=O)OC)cc1` (stereo not shown) [Example 678, methyl 4-(1-(((7,7-dimethyl-5-phenyl-4,5,6,7-tetrahydropyrazolo[1,5-a]pyrimidin-3-yl)carbonyl)amino)-1-ethylpropyl)benzoate] as the compound, how does the melting point read?
Its melting point is 180 to 181 °C.

With `CCC(CC)(NC(=O)c1cnn2c1NC(c1ccccc1O)CC2(C)C)c1ccc(C(F)(F)F)cc1` (stereo not shown) [Example 629, N-(1-ethyl-1-(4-(trifluoro-methyl)phenyl)propyl)-5-(2-hydroxyphenyl)-7,7-dimethyl-4,5,6,7-tetrahydropyrazolo[1,5-a]pyrimidine-3-carboxamide] as the compound, how does the melting point read?
Its melting point is 122 to 124 °C.

For `CCC(CC)(NC(=O)c1c(C)nn2c1N[C@@H](c1ccccc1)CC2(C)C)c1ccc(N(C)C)cc1` (as salt: HCl) [Example 1071, (5R)-N-(1-(4-(dimethylamino)phenyl)-1-ethylpropyl)-2,7,7-trimethyl-5-phenyl-4,5,6,7-tetrahydropyrazolo[1,5-a]pyrimidine-3-carboxamide], which melting point is on record?
The melting point was 141 to 142 °C.

Which melting point does the source give for `CCC(CC)(CC)NC(=O)c1cnn2c1NC(c1ccccc1)CC2(C)C` (stereo not shown) [Example 616, N-(1,1-diethylpropyl)-7,7-dimethyl-5-phenyl-4,5,6,7-tetrahydropyrazolo[1,5-a]pyrimidine-3-carboxamide] here?
Its melting point is 93 to 94 °C.
